# Reference: the supplement of paper PMC13380429
# Assays:
# Conditions in all cases: 72 h
# Caco-2 [1] = assay: cell viability relative to DMSO; higher = less toxic
# Calu-3 [2] = assay: as above
# HepG2 [3] = assay: as above
# U2OS [4] = assay: as above
# Vero E6 [5] = assay: as above
# Caco-2 [6] = assay: relative viability EC50 (midpoint between 100% and the lowest measured viability); higher = less toxic
# Calu-3 [7] = assay: as above
# HepG2 [8] = assay: as above
# U2OS [9] = assay: as above
# Vero E6 [10] = assay: as above
# Caco-2 [11] = assay: drug sensitivity score (DSS) for viability; higher = more toxic; extreme values may be limits of the assay
# Calu-3 [12] = assay: as above
# HepG2 [13] = assay: as above
# U2OS [14] = assay: as above
# Vero E6 [15] = assay: as above
Structure (SMILES),cell viability (Caco-2 [1]; 1 nM) [%],cell viability (Caco-2 [1]; 10 nM) [%],cell viability (Caco-2 [1]; 100 nM) [%],cell viability (Caco-2 [1]; 1000 nM) [%],cell viability (Caco-2 [1]; 10000 nM) [%],cell viability (Calu-3 [2]; 1 nM) [%],cell viability (Calu-3 [2]; 10 nM) [%],cell viability (Calu-3 [2]; 100 nM) [%],cell viability (Calu-3 [2]; 1000 nM) [%],cell viability (Calu-3 [2]; 10000 nM) [%],cell viability (HepG2 [3]; 1 nM) [%],cell viability (HepG2 [3]; 10 nM) [%],cell viability (HepG2 [3]; 100 nM) [%],cell viability (HepG2 [3]; 1000 nM) [%],cell viability (HepG2 [3]; 10000 nM) [%],cell viability (U2OS [4]; 1 nM) [%],cell viability (U2OS [4]; 10 nM) [%],cell viability (U2OS [4]; 100 nM) [%],cell viability (U2OS [4]; 1000 nM) [%],cell viability (U2OS [4]; 10000 nM) [%],cell viability (Vero E6 [5]; 1 nM) [%],cell viability (Vero E6 [5]; 10 nM) [%],cell viability (Vero E6 [5]; 100 nM) [%],cell viability (Vero E6 [5]; 1000 nM) [%],cell viability (Vero E6 [5]; 10000 nM) [%],relative viability EC50 (Caco-2 [6]) [µM],relative viability EC50 (Calu-3 [7]) [µM],relative viability EC50 (HepG2 [8]) [µM],relative viability EC50 (U2OS [9]) [µM],relative viability EC50 (Vero E6 [10]) [µM],drug sensitivity score (Caco-2 [11]),drug sensitivity score (Calu-3 [12]),drug sensitivity score (HepG2 [13]),drug sensitivity score (U2OS [14]),drug sensitivity score (Vero E6 [15])
Cc1ccccc1C(C(=O)NC1CCCCC1)N(C(=O)Cn1ccnc1C)c1cccc(F)c1 (stereo not given) [AGI-5198],98.4,97.5,87.9,103,90.6,93.6,95.7,85.4,90.3,87.4,103,99.3,112,88.6,103,96.6,103,102,106,93.2,100,100,98.9,99.2,101,> 10,> 10,> 10,> 10,> 10,0,0.8,0,0,0
O=c1sn(-c2cccc3ccccc23)c(=O)n1Cc1ccccc1 [tideglusib],95.6,90.2,102,98.9,110,108,97.7,106,99,97.2,90.7,106,100,98.8,103,98,101,103,102,97,97,96.8,97,93.9,100,> 10,> 10,> 10,> 10,> 10,0,0,0,0,0
O=C(Nc1cccc2c(=O)cc(-c3nnn[nH]3)oc12)c1ccc(OCCCCc2ccccc2)cc1 [pranlukast],94.1,91.3,94.6,99.1,86.7,102,111,93.1,96.8,88.9,95.7,95.6,104,101,99.9,96.7,97.2,94.3,98.6,95.2,99.6,94.4,93.8,97.1,96,> 10,> 10,> 10,> 10,> 10,0,0,0,0,0
